In the METLIN SMRT retention time set (Domingo-Almenara et al. 2019):

Assay: gradient 5% acetonitrile 3 min, to 50% in 2 min, to 85% in 15 min, held 3 min, 100 µL/min
Conditions: column: Zorbax Extend-C18 2.1 x 50 mm; eluents: water / acetonitrile, 0.1% formic acid
Outline: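 Retention times of pure standards were taken from adduct peaks that were selected by computer and manually inspected. Over 3 months, mixtures of ~100 molecules were run by HPLC–quadrupole time-of-flight mass spectrometry in positive and negative ionization mode. The Zorbax Extend-C18 column (2.1 × 50 mm, 1.8 μm) ran at 100 μL/min in water and acetonitrile, each containing 0.1% formic acid, with 40 μL dead volume and 900 μL dwell volume.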

SMILES	RP-LC retention time [s]
COc1ccc(C2CC(=O)N(c3ccc(OC)c(OC)c3)C(=O)C2)cc1OC	910
COC(=O)c1ccc(NC(=O)C(=O)NCc2ccccn2)cc1	592
CCCc1cc(N2CCN(C(=O)c3ccc(C#N)cc3)CC2)nc2nnc(C)n12	610
O=C(CN1C(=O)CCCc2cc(S(=O)(=O)N3CCCC3)ccc21)N1CCc2ccccc2C1	838
CCOc1ccc(NC(=O)C2CCCN(c3ncnc4c3oc3ccccc34)C2)cc1 (stereo unspecified)	816
CC(C)(C)C(=O)N1CCCC1COc1ccc(C(=O)N2CCCC2)cc1 (stereo unspecified)	647
COc1ccc(-c2noc(C3CCCN3C(=O)c3cccnc3SC)n2)cc1 (stereo unspecified)	907
O=C(Nc1cnc(N2CCCCC2)nc1)c1cc(F)cc(F)c1	984
CC(C)n1c(CC2CCN(C(=O)Nc3ccccc3Cl)C2)nc2cccnc21 (stereo unspecified)	648
Cc1nc(-c2ccc3c(c2)CCN3C(=O)c2n[nH]c3ccccc23)cs1	959
CCS(=O)(=O)Nc1ccc(C2=NN(C(=O)c3ccco3)C(c3cccs3)C2)cc1 (stereo unspecified)	764
CCOC(=O)c1sc(NC(=O)CC(C)C)nc1-c1ccccc1	1050
CCC(=O)Nc1ccc(-n2cnc(C(=O)N3CCN(c4ccccc4)CC3)c2)nc1	708
CCOc1ccc(/C=C2\CCc3ccccc3C2=O)cc1	1290
CCOc1ccc(-n2ccn3c(CC(C)CC(=O)NC4CCCC4)nnc3c2=O)cc1 (stereo unspecified)	710
Cc1noc(C2(NC(=O)/C=C/c3cccnc3)CCCCC2)n1	609
O=C(CN1CCCc2nc(C3CC3)ncc2C1=O)NCc1ccco1	663
COC(=O)c1ccccc1NC(=O)Cn1c(=O)n(-c2ccc(F)cc2)c(=O)c2c1cc(C)n2C	933
c1ccc(N2CCN(c3nnc(-n4cccc4CN4CCN(c5ccccn5)CC4)s3)CC2)cc1	675
CCOc1ccc(CC(=O)N2CCCN(c3cc(-c4ccc(Br)cc4)[nH]n3)CC2)cc1OCC	842
Cc1ccc(CNC(=O)Cc2c(C(=O)O)c(C)cn2C)o1	695
Cc1cc(C)n(CC(=O)N2CCC(c3nc(-c4ccncc4)no3)C2)n1 (stereo unspecified)	839
Cc1ccc(Cl)cc1N(C)S(=O)(=O)c1cc2n(c1)CCCN(C)C2=O	794

SMILES	RP-LC retention time [s]
Cc1ccc(-c2cc(C(=O)NCCc3ccc(S(N)(=O)=O)cc3)c(C)[nH]2)cc1C	794
CC(C)Cc1csc(-c2csc(S(=O)(=O)NCc3cccs3)c2)n1	1150
COc1ccc(NS(=O)(=O)c2cc(-c3nnc(C(=O)N4CCCC4)o3)sc2C)cc1OC	806
Cc1ccc(Nc2nc(-c3ccccc3)cs2)cc1	1170
Cc1ccc(-c2cn3ccn(-c4ccc(F)c(F)c4)c(=O)c3n2)c(C)c1	924
Cc1ccc(NS(=O)(=O)c2ccc(-c3c(C)noc3C)cc2)c(Br)c1	1020
CCOc1ccccc1NC(=O)C1CCN(S(=O)(=O)c2cn(C(C)C)cn2)CC1	846
Cc1nc(CC(=O)Nc2ccc(F)c(Cl)c2)sc1C(=O)NC1CC1	759
Cc1ccnc(N2CCC(C(=O)NCCSCc3ccco3)CC2)n1	680
Cc1ccc(NC(=O)C2CCN(S(=O)(=O)c3ccc4c(c3)sc(=O)n4C(C)C)CC2)cc1	942
COc1ccc(NC(=O)N2CCc3cn(C)c4cccc(c34)C2)cc1	844
Cc1ccc(S(=O)(=O)N2CCC3(CC2)NCCN=C3NCc2ccc(F)cc2)cc1	709
CSc1nc2ccc3nc(NC(=O)C4=COCCO4)sc3c2s1	905
Cc1ccc(N2CCN(CC(O)c3ccc4c(c3)OCO4)CC2)cc1 (stereo unspecified)	665
COc1ccc(Nc2c(C(=O)N3CCCC(C)C3)cnc3nc(C)ccc23)cc1 (stereo unspecified)	650
O=S(=O)(c1cc(-c2nnc(C3CC3)o2)co1)N1CCN(c2ccccn2)CC1	640
Cc1ccc(Nc2nc(C(=O)NCCc3cccs3)nc3ccccc23)cc1	840
CC1(O)CCOC2(CCN(Cc3cccc4[nH]ccc34)CC2)C1 (stereo unspecified)	589
COCCNC(=O)C1Cn2cccc2C(=O)N1C (stereo unspecified)	570
CCCOc1ccc(-c2nnc3sc(-c4ccncc4)nn23)cc1	642
O=C(N[C@H]1CN2CCC1CC2)c1ccc(Cl)cc1	630
Cn1cccc1-c1noc(C2CCN(C(=O)c3ccoc3)C2)n1 (stereo unspecified)	784
COc1ccc(-c2nnc(COc3cccc(NC(=O)CNC(=O)Cc4ccccc4)c3)o2)cc1	816
